Experiments:
MC4 = molecular target: T1, MC4 (Homo sapiens, UniProt P32245); assay: In vitro functional assay with recombinant cells: agonist-induced changes in intracellular Ca2+ (FLIPR); type: cell-based; conditions: recombinant HEK293 cells expressing MC4 and G-protein α-16; Fluo-4 Ca2+ FLIPR; 100% = 100 nM reference agonist MTII
T1 construct: expressed in transfected cells; host or cells: HEK293
Method: In Vitro Functional Assays with Recombinant Cells
Function-testing assays were carried out by determining the agonist-induced changes in the intracellular concentration of Ca^2+ in recombinant HEK293 cells which express both MC4 and G-protein α-16 by means of the FLIPR technique (“Fluorescence Imaging Plate Reader”, Molecular Devices Corp.).
For the investigations, cells were seeded into 96-well microtiter plates (50 000 cells/well) and allowed to grow overnight. The medium was removed and the cells were incubated in buffer which contained the fluorescent dye Fluo-4. After this loading with dye, the cells were washed, test substance was added, and changes in the intracellular Ca^2+ concentration were measured in the FLIPR apparatus. Results have been shown as percentage change relative to the control (0%: no test substance added; 100%: 100 nM reference agonist MTII added), and used to calculate dose/activity plots, with subsequent determination of EC50 values.

female NMRI mice = assay: Anorectic effect: cumulative condensed milk consumption of fasted mice; type: in vivo; conditions: oral dose 30 mg/kg by gavage after 24 hours food withdrawal, milk consumption determined for 7 hours, compared with vehicle-treated control animals
Method: The anorectic effect was tested on female NMRI mice. After withdrawal of food for 24 hours, the test product was administered by gavage. The animals were housed singly with free access to drinking water and were offered condensed milk 30 minutes after administration of the product. The condensed milk consumption was determined every half hour for 7 hours, and the general wellbeing of the animals was observed. The measured milk consumption was compared with the vehicle-treated control animals.

T1 sequence (P32245 whole entry): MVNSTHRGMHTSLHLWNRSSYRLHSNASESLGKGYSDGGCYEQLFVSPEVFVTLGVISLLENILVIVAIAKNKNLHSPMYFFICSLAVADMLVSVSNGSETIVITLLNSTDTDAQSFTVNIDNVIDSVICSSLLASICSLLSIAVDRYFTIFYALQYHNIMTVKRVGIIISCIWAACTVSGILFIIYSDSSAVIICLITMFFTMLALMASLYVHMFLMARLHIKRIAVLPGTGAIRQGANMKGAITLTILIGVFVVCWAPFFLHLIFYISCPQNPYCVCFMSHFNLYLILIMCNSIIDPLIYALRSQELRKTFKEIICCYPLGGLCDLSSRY

Question: Which EC50 (MC4) does the source give for `CC(C)C(N)C(=O)N1CCCC1C(=O)NC1CN(S(=O)(=O)c2ccc(Cl)cc2Cl)C2CN(C(C)C)C(=O)C(Cc3ccc(F)c(F)c3)N2C1=O` (stereo not drawn) [Example 9, N-[1-(2,4-Dichlorobenzenesulfonyl)-6-(3,4-difluorobenzyl)-8-isopropyl-4,7-dioxooctahydropyrazino[1,2-a]pyrimidin-3-yl]-1-(2-amino-3-methylbutyryl)pyrrolidine-2-carboxamide] here?
Answer: Its EC50 is 1.5 nM.

Question: Which EC50 (MC4) does the source give for `CC(C)CC(N)C(=O)N1CCCC1C(=O)NC1CN(S(=O)(=O)c2ccc(Cl)cc2Cl)C2CN(C(C)C)C(=O)C(Cc3ccc(Cl)cc3)N2C1=O` (stereo not drawn) [Example 4, N-[6-(4-Chlorobenzyl)-1-(2,4-dichlorobenzenesulfonyl)-8-isopropyl-4,7-dioxooctahydropyrazino[1,2-a]pyrimidin-3-yl]-1-(2-amino-4-methylpentanoyl)pyrrolidine-2-carboxamide] here?
Answer: Its EC50 is 0.4 nM.

Question: How did the EC50 (MC4) turn out when `CC(N)C(=O)N1CCCC1C(=O)NC1CN(S(=O)(=O)c2ccc(Cl)cc2Cl)C2CN(C(C)C)C(=O)C(Cc3ccc(Cl)cc3)N2C1=O` (stereo not drawn) [Example 3, N-[6-(4-Chlorobenzyl)-1-(2,4-dichlorobenzenesulfonyl)-8-isopropyl-4,7-dioxooctahydropyrazino[1,2-a]pyrimidin-3-yl]-1-(2-aminopropionyl)pyrrolidine-2-carboxamide] was run?
Answer: The EC50 was 0.2 nM.

Question: How did the EC50 (MC4) turn out when `CC(C)C(N)C(=O)N1CCCC1C(=O)NC1CN(S(=O)(=O)c2ccc(Cl)cc2Cl)C2CN(CC(F)F)C(=O)C(Cc3ccc(Cl)cc3)N2C1=O` (stereo not drawn) [Example 11, N-[6-(4-Chlorobenzyl)-1-(2,4-dichlorobenzenesulfonyl)-8-(2,2-difluoroethyl)-4,7-dioxooctahydropyrazino[1,2-a]pyrimidin-3-yl]-1-(2-amino-3-methylbutyryl)pyrrolidine-2-carboxamide] was run?
Answer: Its EC50 is 0.6 nM.

Question: How did the EC50 (MC4) turn out when `CC(C)C(N)C(=O)N1CCCC1C(=O)NC1CN(S(=O)(=O)c2ccc(Cl)cc2Cl)C2CN(C(C)C)C(=O)C(Cc3ccc(F)cc3F)N2C1=O` (stereo not drawn) [Example 10, N-[1-(2,4-Dichlorobenzenesulfonyl)-6-(2,4-difluorobenzyl)-8-isopropyl-4,7-dioxooctahydropyrazino[1,2-a]pyrimidin-3-yl]-1-(2-amino-3-methylbutyryl)pyrrolidine-2-carboxamide] was run?
Answer: Its EC50 is 5.7 nM.

Question: `CC(C)C(N)C(=O)N1CCCC1C(=O)NC1CN(S(=O)(=O)c2cc(F)ccc2Cl)C2CN(C(C)C)C(=O)C(Cc3ccc(Cl)cc3)N2C1=O` (stereo not drawn) [Example 6, N-[6-(4-Chlorobenzyl)-1-(2-chloro-5-fluorobenzenesulfonyl)-8-isopropyl-4,7-dioxooctahydropyrazino[1,2-a]pyrimidin-3-yl]-1-(2-amino-3-methylbutyryl)pyrrolidine-2-carboxamide] was tested. Which EC50 (MC4) did it give?
Answer: Its EC50 is 3.2 nM.

Question: `CC(C)C(N)C(=O)N1CCCC1C(=O)NC1CN(S(=O)(=O)c2ccc(Cl)cc2Cl)C2CN(C)C(=O)C(Cc3ccc(Cl)cc3)N2C1=O` (stereo not drawn) [Example 13] was tested. Which EC50 (MC4) did it give?
Answer: Its EC50 is 4.7 nM.

Question: How did the EC50 (MC4) turn out when `CC(C)C(C(=O)N1CCCC1C(=O)NC1CN(S(=O)(=O)c2ccc(Cl)cc2Cl)C2CN(C(C)C)C(=O)C(Cc3ccc(Cl)cc3)N2C1=O)N(C)C` (stereo not drawn) [Example 5, N-[6-(4-Chlorobenzyl)-1-(2,4-dichlorobenzenesulfonyl)-8-isopropyl-4,7-dioxooctahydropyrazino[1,2-a]pyrimidin-3-yl]-1-(2-dimethylamino-3-methylbutyryl)pyrrolidine-2-carboxamide] was run?
Answer: The EC50 was 2 nM.

Question: Which EC50 (MC4) does the source give for `CC(C)C(N)C(=O)N1CCCC1C(=O)NC1CN(S(=O)(=O)c2ccc(Cl)cc2F)C2CN(C(C)C)C(=O)C(Cc3ccc(Cl)cc3)N2C1=O` (stereo not drawn) [Example 8, N-[6-(4-Chlorobenzyl)-1-(4-chloro-2-fluorobenzenesulfonyl)-8-isopropyl-4,7-dioxooctahydropyrazino[1,2-a]pyrimidin-3-yl]-1-(2-amino-3-methylbutyryl)pyrrolidine-2-carboxamide] here?
Answer: The EC50 was 2.4 nM.

Question: With `CC(C)C(N)C(=O)N1CCCC1C(=O)NC1CN(S(=O)(=O)c2ccc(Cl)cc2Cl)C2CN(C(C)C)C(=O)C(Cc3cccnc3)N2C1=O` (stereo not drawn) [Example 16, N-[1-(2,4-Dichlorobenzenesulfonyl)-8-isopropyl-4,7-dioxo-6-pyridin-3-ylmethyloctahydropyrazino[1,2-a]pyrimidin-3-yl]-1-(2-amino-3-methylbutyryl)pyrrolidine-2-carboxamide] as the compound, how does the EC50 (MC4) read?
Answer: Its EC50 is 717 nM.

Question: With `CCN1C[C@H]2N(C(=O)C(NC(=O)C3CCCN3C(=O)C(N)C(C)C)CN2S(=O)(=O)c2ccc(Cl)cc2Cl)[C@@H](Cc2ccc(F)c(F)c2)C1=O` (stereo partly drawn) [Example 14, N-[1-(2,4-dichlorobenzenesulfonyl)-6-(3,4-difluorobenzyl)-8-ethyl-4,7-dioxooctahydropyrazino[1,2-a]pyrimidin-3-yl]-1-(2-amino-3-methylbutryl)pyrrolidine-2-carboxamide] as the compound, how does the EC50 (MC4) read?
Answer: Its EC50 is 1.6 nM.

Question: With `CCN1CC2N(C(=O)C(NC(=O)C3CCCN3C(=O)C(N)C(C)C)CN2S(=O)(=O)c2ccc(Cl)cc2Cl)C(Cc2ccc(Cl)cc2)C1=O` (stereo not drawn) [Example 12, N-[6-(4-Chlorobenzyl)-1-(2,4-dichlorobenzenesulfonyl)-8-ethyl-4,7-dioxooctahydropyrazino[1,2-a]pyrimidin-3-yl]-1-(2-amino-3-methylbutyryl)pyrrolidine-2-carboxamide] as the compound, how does the EC50 (MC4) read?
Answer: Its EC50 is 0.6 nM.

Question: `CC(C)C(N)C(=O)N1CCCC1C(=O)NC1CN(S(=O)(=O)c2ccc(Cl)cc2Cl)C2CN(C3CC3)C(=O)C(Cc3cccnc3)N2C1=O` (stereo not drawn) [Example 17, N-[8-Cyclopropyl-1-(2,4-dichlorobenzenesulfonyl)-4,7-dioxo-6-pyridin-3-ylmethyloctahydropyrazino[1,2-a]pyrimidin-3-yl]-1-(2-amino-3-methylbutyryl)pyrrolidine-2-carboxamide] was tested. Which EC50 (MC4) did it give?
Answer: The EC50 was 3490 nM.

Question: Which results are given for `CC(C)C(N)C(=O)N1CCCC1C(=O)NC1CN(S(=O)(=O)c2ccc(Cl)cc2Cl)C2CN(C(C)C)C(=O)C(Cc3ccc(Cl)cc3)N2C1=O` (stereo not drawn) [Example 1, N-[6-(4-Chlorobenzyl)-1-(2,4-dichlorobenzenesulfonyl)-8-isopropyl-4,7-dioxooctahydropyrazino[1,2-a]pyrimidin-3-yl]-1-(2-amino-3-methylbutyryl)pyrrolidin-2-carboxamide]?
Answer: EC50 (MC4): 0.4 nM; Reduction in the cumulative milk consumption as % of the control (female NMRI mice): 8%

Question: For `CC(C)C(N)C(=O)N1CCCC1C(=O)NC1CN(S(=O)(=O)c2ccc(OC(F)(F)F)cc2Cl)C2CN(C(C)C)C(=O)C(Cc3ccc(Cl)cc3)N2C1=O` (stereo not drawn) [Example 7, N-[6-(4-Chlorobenzyl)-1-(2-chloro-4-trifluoromethoxybenzene-sulfonyl)-8-isopropyl-4,7-dioxooctahydropyrazino[1,2-a]-pyrimidin-3-yl]-1-(2-amino-3-methylbutyryl)pyrrolidine-2-carboxamide], which EC50 (MC4) is on record?
Answer: Its EC50 is 2.6 nM.

Question: Which EC50 (MC4) does the source give for `CC(C)C(N)C(=O)N1CCCC1C(=O)NC1CN(S(=O)(=O)c2ccc(Cl)cc2Cl)C2CN(C)C(=O)C(Cc3ccc(F)c(F)c3)N2C1=O` (stereo not drawn) [Example 15, N-[1-(2,4-Dichlorobenzenesulfonyl)-6-(3,4-difluorobenzyl)-8-methyl-4,7-dioxooctahydropyrazino[1,2-a]pyrimidin-3-yl]-1-(2-amino-3-methylbutyryl)pyrrolidine-2-carboxamide] here?
Answer: The EC50 was 30.8 nM.

Question: Which EC50 (MC4) does the source give for `CC(C)N1CC2N(C(=O)C(NC(=O)C3CCCN3C(=O)CN)CN2S(=O)(=O)c2ccc(Cl)cc2Cl)C(Cc2ccc(Cl)cc2)C1=O` (stereo not drawn) [Example 2, N-[6-(4-Chlorobenzyl)-1-(2,4-dichlorobenzenesulfonyl)-8-isopropyl-4,7-dioxooctahydropyrazino[1,2-a]pyrimidin-3-yl]-1-(2-aminoacetyl)pyrrolidine-2-carboxamide] here?
Answer: Its EC50 is 0.6 nM.
